Results: ChEMBL document CHEMBL4804284

What was measured:
[1] = test system: Tyrosine-protein kinase ABL1 (Homo sapiens), P00519 [M351T]; test: Inhibition of DNA-tagged phosphorylated human ABL1 M351T mutant assessed as percent of control at 50000 nM by qPCR analysis relative to control; set-up: scale not given: the % may be the effect or the level left
[2] = biological target: Mitogen-activated protein kinase 13 (Homo sapiens) (UniProt O15264); test: Inhibition of DNA-tagged human p38-delta assessed as percent of control at 50000 nM by qPCR analysis relative to control; set-up: scale not given: the % may be the effect or the level left
Mitogen-activated protein kinase 13 (Homo sapiens), sequence (O15264 whole entry): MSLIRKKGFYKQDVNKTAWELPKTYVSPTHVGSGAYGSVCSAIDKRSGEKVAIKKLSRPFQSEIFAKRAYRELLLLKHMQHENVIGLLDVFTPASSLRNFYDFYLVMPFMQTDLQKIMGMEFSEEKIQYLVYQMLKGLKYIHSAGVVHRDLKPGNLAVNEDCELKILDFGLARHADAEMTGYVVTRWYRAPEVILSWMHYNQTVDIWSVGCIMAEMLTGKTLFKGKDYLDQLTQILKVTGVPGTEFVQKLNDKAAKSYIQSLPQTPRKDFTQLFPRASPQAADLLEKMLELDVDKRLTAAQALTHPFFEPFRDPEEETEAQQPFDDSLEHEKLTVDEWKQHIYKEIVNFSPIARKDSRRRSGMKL

## CN1C(=O)/C(=C2/C(=O)Nc3ccccc32)c2ccccc21
[1]
  Activity: 73%
[2]
  Activity: 100%
